In assay [1] the test system is HAP1 MTAP-deleted cell line. Description: Viability assay, MTAP-deleted cell line. The following applies: HAP1 MTAP-deleted, read-out: HAP1 MTAP deleted viability. In kind it is cell-based. From the text:
Table 1 additionally indicates IC50 values in a viability assay for the MTAP-deleted cell line (column 10), indicating the effect of treatment with compound on cell survival.

The target in assay [2] is T1, PRMT5 (Homo sapiens, UniProt O14744).
T1 construct: purchased Viva (custom protein)
T1 sequence (O14744 whole entry): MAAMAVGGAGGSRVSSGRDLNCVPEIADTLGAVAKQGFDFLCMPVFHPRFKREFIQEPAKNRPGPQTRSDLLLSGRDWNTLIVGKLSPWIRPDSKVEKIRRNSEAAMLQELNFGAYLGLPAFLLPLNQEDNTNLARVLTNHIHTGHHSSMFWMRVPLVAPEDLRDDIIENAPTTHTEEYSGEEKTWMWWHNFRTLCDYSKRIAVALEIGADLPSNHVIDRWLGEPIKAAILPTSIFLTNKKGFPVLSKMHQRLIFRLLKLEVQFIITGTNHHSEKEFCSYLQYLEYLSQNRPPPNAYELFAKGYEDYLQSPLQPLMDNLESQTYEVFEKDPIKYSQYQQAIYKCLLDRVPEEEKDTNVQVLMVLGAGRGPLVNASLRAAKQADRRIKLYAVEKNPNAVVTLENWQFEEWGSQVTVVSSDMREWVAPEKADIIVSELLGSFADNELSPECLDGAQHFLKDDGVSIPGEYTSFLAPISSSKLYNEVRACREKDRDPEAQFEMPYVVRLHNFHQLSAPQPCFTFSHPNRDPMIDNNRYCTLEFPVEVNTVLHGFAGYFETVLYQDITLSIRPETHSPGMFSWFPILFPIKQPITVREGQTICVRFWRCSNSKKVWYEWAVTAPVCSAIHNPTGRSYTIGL
T1 sequence (Q9BQA1 whole entry partner): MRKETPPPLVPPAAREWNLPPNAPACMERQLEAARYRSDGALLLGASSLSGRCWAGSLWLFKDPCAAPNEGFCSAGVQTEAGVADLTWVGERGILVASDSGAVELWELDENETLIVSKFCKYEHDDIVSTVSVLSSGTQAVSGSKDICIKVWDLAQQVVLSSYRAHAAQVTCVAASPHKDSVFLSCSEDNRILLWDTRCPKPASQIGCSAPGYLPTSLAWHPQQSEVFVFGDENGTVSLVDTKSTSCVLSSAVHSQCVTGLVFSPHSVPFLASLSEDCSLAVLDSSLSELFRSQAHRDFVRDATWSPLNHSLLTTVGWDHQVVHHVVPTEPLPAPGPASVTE
Briefly: PRMT5 biochemical IC50 assay with SAM as cofactor. The following applies: PRMT5, SAM as cofactor; read-out: SAM IC50.

Assay [3] has as its target T1, PRMT5. Briefly: PRMT5 biochemical IC50 assay with MTA as cofactor. The following applies: PRMT5, MTA as cofactor; read-out: MTA IC50.
For assay [4], the target named is T1, PRMT5. Description: PRMT5 biochemical IC50 assay with no cofactor. The following applies: PRMT5, no cofactor; read-out: No Cofactor/rel IC50. From the text: Table 1 indicates IC50 values (μM) against PRMT5 for exemplary compounds in the presence of SAM as cofactor, with no cofactor, and with MTA as cofactor, respectively (columns 4-6). […] Ki values can be calculated from the IC50 values as described in the Examples section. As detailed in the Examples section, for the assay performed in the presence of SAM, IC50=Ki×1.5 (Ki=IC50/1.5).

The subject of assay [5] is HAP1 MTAP-intact cell line. Briefly: SDMA in-cell western assay, HAP1 MTAP-intact. It is filed as cell-based. The following applies: HAP1 MTAP-intact, read-out: MTAP HAP1 intact IC50. In a few lines: (§1)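 IC50 values come from SDMA signal quantified by in-cell western in two HAP1 lines, one with native MTAP levels and one lacking MTAP.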
Assay [6] relates to HAP1 MTAP-deleted cell line. Briefly: SDMA in-cell western assay, HAP1 MTAP-deleted. It is filed as cell-based. The following applies: for IC50: HAP1 MTAP-deleted, read-out: HAP1 MTAP deleted IC50; for MTAP intact/deleted ratio: IC50 ratio HAP1 MTAP-intact / HAP1 MTAP-deleted. A digest of the protocol:
as §1

Setting [7] is: Homo sapiens, HAP1, viability assay.
The mark [8] stands for this setting: Homo sapiens, HAP1, SDMA in-cell western.

The record followed here is patent publication US11999727B2 (Tango Therapeutics, Inc., priority 2020, dated 2024).

Read-outs that look alike come from different tables or passages of the source. Bounds are passed on as bounds.

For the molecule `CCc1cc(NC(=O)C(=O)N2C[C@H](C)CC[C@H]2c2ccc(C)nc2)cnc1N` (single isomer, unassigned) [Compound 756], the IC50 in assay [1] (setting [7]) is over 10000 nM; at PRMT5 [2] it was over 500 nM; on PRMT5 [3], over 500 nM; on PRMT5 [4] it was over 500 nM; in assay [5] (setting [8]), over 1000 nM; in assay [6] (setting [8]), over 1000 nM. For the same molecule, the MTAP intact/deleted ratio result in assay [6] (SDMA in-cell western) is “B (an IC50 ratio greater than or equal to 3 fold but lower than 10 fold)”.

For the molecule `COc1ncc(NC(=O)C(=O)N2C[C@H](C)CC[C@H]2c2ccc(NC(C)=O)cc2)cc1C(N)=O` (single isomer, unassigned) [Compound 760], the IC50 in assay [1] (setting [7]) was under 1000 nM; on PRMT5 [2], 50 to 500 nM; at PRMT5 [3], under 50 nM; at PRMT5 [4], under 50 nM; in assay [5] (setting [8]) it was over 1000 nM; in assay [6] (setting [8]), under 100 nM. In assay [6] (SDMA in-cell western), the MTAP intact/deleted ratio result was “A (an IC50 ratio greater than or equal to 10 fold)”.

Turning to `COc1ncc(NC(=O)C(=O)N2C[C@@H](C)CC[C@@H]2c2ccc(NC(C)=O)cc2)cc1C(N)=O` (single isomer, unassigned) [Compound 761], the IC50 in assay [1] (setting [7]) is over 10000 nM; at PRMT5 [2], over 500 nM; at PRMT5 [3] it was over 500 nM; on PRMT5 [4], over 500 nM; in assay [5] (setting [8]), over 1000 nM; in assay [6] (setting [8]) it was over 1000 nM. Moreover, the MTAP intact/deleted ratio result in assay [6] (SDMA in-cell western) is listed as “C (an IC50 ratio of less than 3 fold)”.

Consider `Cc1cc(NC(=O)C(=O)N2C[C@@H](C)CC[C@@H]2c2ccc3[nH]c(=O)ccc3c2)cnc1N` (single isomer, unassigned) [Compound 762], for which the IC50 in assay [1] (setting [7]) was under 1000 nM; at PRMT5 [2], under 50 nM; at PRMT5 [3] it was under 50 nM; on PRMT5 [4], under 50 nM; in assay [5] (setting [8]), under 100 nM; in assay [6] (setting [8]) it was under 100 nM. Further, the MTAP intact/deleted ratio result in assay [6] (SDMA in-cell western) is given as “B (an IC50 ratio greater than or equal to 3 fold but lower than 10 fold)”.

Take `Cc1cc(NC(=O)C(=O)N2C[C@H](C)CC[C@H]2c2ccc3[nH]c(=O)ccc3c2)cnc1N` (single isomer, unassigned) [Compound 763]: the IC50 in assay [1] (setting [7]) was over 10000 nM; at PRMT5 [2], over 500 nM; on PRMT5 [3], over 500 nM; at PRMT5 [4] it was over 500 nM; in assay [5] (setting [8]), over 1000 nM; in assay [6] (setting [8]), over 1000 nM. In assay [6] (SDMA in-cell western), the MTAP intact/deleted ratio entry is recorded as “B (an IC50 ratio greater than or equal to 3 fold but lower than 10 fold)”.

As to `CCOc1ncc(NC(=O)C(=O)N2C[C@@H](C)CC[C@@H]2c2ccccc2)cc1C(N)=O` (single isomer, unassigned) [Compound 764], the IC50 in assay [1] (setting [7]) was 1000 to 10000 nM; on PRMT5 [2] it was 50 to 500 nM; at PRMT5 [3], under 50 nM; on PRMT5 [4] it was 50 to 500 nM; in assay [5] (setting [8]), over 1000 nM; in assay [6] (setting [8]), 100 to 1000 nM. Moreover, the MTAP intact/deleted ratio result in assay [6] (SDMA in-cell western) was “A (an IC50 ratio greater than or equal to 10 fold)”.

Turning to `CCOc1ncc(NC(=O)C(=O)N2C[C@H](C)CC[C@H]2c2ccccc2)cc1C(N)=O` (single isomer, unassigned) [Compound 765], the IC50 in assay [1] (setting [7]) is over 10000 nM; on PRMT5 [2] it was over 500 nM; at PRMT5 [3], over 500 nM; at PRMT5 [4] it was over 500 nM; in assay [5] (setting [8]), over 1000 nM; in assay [6] (setting [8]), over 1000 nM. Also, in assay [6] (SDMA in-cell western), the MTAP intact/deleted ratio entry was “C (an IC50 ratio of less than 3 fold)”.

Consider `[H][C@]1([C@]2([H])C[C@]3(C[C@H](O)C3)C2)CC[C@H](C)CN1C(=O)C(=O)Nc1cnc(N)c(C)c1` (single isomer, unassigned) [Compound 766], for which the IC50 is over 10000 nM in assay [1] (setting [7]); over 500 nM at PRMT5 [2]; over 500 nM on PRMT5 [3]; over 500 nM on PRMT5 [4]; over 1000 nM in assay [5] (setting [8]); over 1000 nM in assay [6] (SDMA in-cell western). Also, the MTAP intact/deleted ratio entry in assay [6] (SDMA in-cell western) is given as “C (an IC50 ratio of less than 3 fold)”.

Turning to `[H][C@@]1([C@]2([H])C[C@@]3(C[C@H](O)C3)C2)CC[C@@H](C)CN1C(=O)C(=O)Nc1cnc(N)c(C)c1` (single isomer, unassigned) [Compound 767], the IC50 in assay [1] (setting [7]) was over 10000 nM; on PRMT5 [2], 50 to 500 nM; at PRMT5 [3], 50 to 500 nM; on PRMT5 [4], over 500 nM; in assay [5] (setting [8]), over 1000 nM; in assay [6] (setting [8]), over 1000 nM. In addition, in assay [6] (SDMA in-cell western), the MTAP intact/deleted ratio result was “B (an IC50 ratio greater than or equal to 3 fold but lower than 10 fold)”.

Turning to `[H][C@]1([C@]2([H])C[C@@]3(C[C@H](O)C3)C2)CC[C@H](C)CN1C(=O)C(=O)Nc1cnc(N)c(C)c1` (single isomer, unassigned) [Compound 768], the IC50 in assay [1] (viability assay) is over 10000 nM; at PRMT5 [2], 50 to 500 nM; on PRMT5 [3], 50 to 500 nM; on PRMT5 [4], 50 to 500 nM; in assay [5] (SDMA in-cell western) it was over 1000 nM; in assay [6] (SDMA in-cell western), 100 to 1000 nM. In addition, the MTAP intact/deleted ratio entry in assay [6] (SDMA in-cell western) was “B (an IC50 ratio greater than or equal to 3 fold but lower than 10 fold)”.

With `[H][C@@]1([C@]2([H])C[C@]3(C[C@H](O)C3)C2)CC[C@@H](C)CN1C(=O)C(=O)Nc1cnc(N)c(C)c1` (single isomer, unassigned) [Compound 769], the IC50 in assay [1] (viability assay) was over 10000 nM; at PRMT5 [2], over 500 nM; on PRMT5 [3], over 500 nM; on PRMT5 [4] it was over 500 nM; in assay [5] (SDMA in-cell western), over 1000 nM; in assay [6] (SDMA in-cell western), over 1000 nM. Besides, in assay [6] (SDMA in-cell western), the MTAP intact/deleted ratio result was “C (an IC50 ratio of less than 3 fold)”.

Consider `COc1ncc(NC(=O)C(=O)N2C[C@@H](C)CC[C@@H]2c2ccc(C)nc2)cc1C(N)=O` (single isomer, unassigned) [Compound 770], for which the IC50 in assay [1] (setting [7]) was over 10000 nM; on PRMT5 [2], over 500 nM; at PRMT5 [3] it was over 500 nM; on PRMT5 [4], over 500 nM; in assay [5] (setting [8]), over 1000 nM; in assay [6] (setting [8]) it was over 1000 nM. Further, the MTAP intact/deleted ratio result in assay [6] (SDMA in-cell western) is recorded as “C (an IC50 ratio of less than 3 fold)”.

For the molecule `CCc1cc(NC(=O)C(=O)N2C[C@H](C)CC[C@H]2c2ccc3[nH]cnc3c2)cnc1N` (single isomer, unassigned) [Compound 771], the IC50 in assay [1] (setting [7]) was over 10000 nM; on PRMT5 [2] it was over 500 nM; on PRMT5 [3], over 500 nM; on PRMT5 [4], over 500 nM; in assay [5] (setting [8]) it was over 1000 nM; in assay [6] (setting [8]), over 1000 nM. For the same molecule, in assay [6] (SDMA in-cell western), the MTAP intact/deleted ratio result is recorded as “C (an IC50 ratio of less than 3 fold)”.

In the case of `C[C@H]1CC[C@H](c2ccc(-c3nccs3)cc2)N(C(=O)C(=O)Nc2cncc(C(N)=O)c2)C1` (single isomer, unassigned) [Compound 772], the IC50 in assay [1] (setting [7]) is over 10000 nM; at PRMT5 [2], over 500 nM; on PRMT5 [3], over 500 nM; at PRMT5 [4], over 500 nM; in assay [5] (setting [8]), over 1000 nM; in assay [6] (setting [8]), over 1000 nM. Also, the MTAP intact/deleted ratio result in assay [6] (SDMA in-cell western) is given as “B (an IC50 ratio greater than or equal to 3 fold but lower than 10 fold)”.

Regarding `Cc1cc(NC(=O)C(=O)N2C[C@H](C)C(F)(F)C[C@H]2c2ccc(F)cc2)cnc1N` (single isomer, unassigned) [Compound 777], the IC50 was over 10000 nM in assay [1] (setting [7]); over 500 nM at PRMT5 [2]; over 500 nM on PRMT5 [3]; over 500 nM on PRMT5 [4]; over 1000 nM in assay [5] (setting [8]); over 1000 nM in assay [6] (setting [8]). Moreover, in assay [6] (SDMA in-cell western), the MTAP intact/deleted ratio result is “B (an IC50 ratio greater than or equal to 3 fold but lower than 10 fold)”.
